Values of other authors as cited in patent US10294298B2, “Human PAC1 antibodies” (AMGEN INC., priority 2013, dated 2019).

Tests used:
VPAC2 = target: T1, VPAC2 (Homo sapiens, UniProt P41587); settings: receptor agonist; background table
T1 sequence (P41587 24-438): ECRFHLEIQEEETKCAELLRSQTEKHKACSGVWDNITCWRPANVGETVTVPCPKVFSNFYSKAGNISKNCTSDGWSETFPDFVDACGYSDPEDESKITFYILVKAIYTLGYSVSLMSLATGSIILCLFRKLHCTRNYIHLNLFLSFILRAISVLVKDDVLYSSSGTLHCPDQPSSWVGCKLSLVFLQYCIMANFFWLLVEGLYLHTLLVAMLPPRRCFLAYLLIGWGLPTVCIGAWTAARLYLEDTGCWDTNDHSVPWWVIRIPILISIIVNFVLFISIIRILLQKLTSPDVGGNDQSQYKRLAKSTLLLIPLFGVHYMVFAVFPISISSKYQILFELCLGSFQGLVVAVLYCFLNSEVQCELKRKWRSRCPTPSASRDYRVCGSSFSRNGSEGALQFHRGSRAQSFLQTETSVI

VPAC1 = target: T2, VPAC1 (Homo sapiens, UniProt P32241); settings: receptor agonist; background table
T2 sequence (P32241 31-457): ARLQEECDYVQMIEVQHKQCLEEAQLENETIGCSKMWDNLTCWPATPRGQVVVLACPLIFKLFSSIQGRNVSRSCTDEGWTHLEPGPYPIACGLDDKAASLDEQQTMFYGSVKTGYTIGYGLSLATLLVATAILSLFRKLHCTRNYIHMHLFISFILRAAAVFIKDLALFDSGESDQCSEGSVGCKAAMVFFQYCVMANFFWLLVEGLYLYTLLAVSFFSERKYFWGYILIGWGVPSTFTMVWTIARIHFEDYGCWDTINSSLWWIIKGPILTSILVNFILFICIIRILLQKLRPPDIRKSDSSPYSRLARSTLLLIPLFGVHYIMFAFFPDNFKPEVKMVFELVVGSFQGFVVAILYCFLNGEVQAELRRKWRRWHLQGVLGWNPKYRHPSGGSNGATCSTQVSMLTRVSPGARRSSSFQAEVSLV

In the case of Maxadilan, the EC50 (VPAC2) is given as over 1000 nM and the EC50 (VPAC1) is given as over 1000 nM.
